Legend:
Assay type in all cases: cell-based, human
[1] = test system: melanoma cells harboring WT or mutant GRM3; assay: Flow cytometry (FACS) cell cycle analysis, sub-G1 population; settings: AZD-6244 2 μM for 72 hours, PI staining
Procedure: (§1) FIGS. 5A-5E: Melanoma lines expressing GRM3 mutants show increased sensitivity to inhibition of MEK by AZD-6244. (FIG. 5A) Immunoblot analysis of representative melanoma cell lines harboring either WT or mutant GRM3. The cells were treated with the indicated concentration of AZD-6244 and analyzed for Erk1/2 expression and phosphorylation. Cells were treated for 1 hour with AZD-6244 or vehicle alone as control. Lysates were subjected to protein blot analysis with α-Eek, anti-P-Erk1/2 (α-P-Erk1/2) and anti-GAPDH as a loading control. (FIG. 5B) Representative dose-response curves showing efficacy of AZD-6244 against GRM3 mutant lines compared to WT GRM3 lines. […] (FIG. 5D) fluorescence activated cells sorting (FACS) analysis of WT (2T) and A190V mutant (17T) cells showing cell cycle distribution (propidium iodide (PI) staining, x axis) versus cell counts (y axis). […] (FIG. 5D) Quantification of FACS-sorted AZD-6244-treated cells. The percentage of apoptotic cells was determined based on the sub-G1 population for vehicle-treated cells or 1 AZD-6244 treated cells. […]
Melanoma cells were seeded into T25 flasks at a density of 3×10^5 cells per flask in normal complete T2 medium and incubated at 37° C. for 24 hours prior to addition of AZD-6244 (cat #S1008) (Selleck Chemicals LLC-Houston, Tex.). […] Cellular DNA content was analyzed on Becton Dickinson FACSCalibur™ using CellQuest software. […]

PARP cleavage = assay: Immunoblot of PARP cleavage after AZD-6244 treatment; settings: lysates from FACS analyzed cells
MEK = assay: Immunoblot of Erk1/2 phosphorylation in melanoma cell lines treated with AZD-6244; settings: 1 hour treatment
Procedure: as §1, with “lines. Relative cell number after cells were treated for 72 hours with increasing concentrations (0.01-30 μM) of AZD-6244, as estimated by CellTiterGlo and plotted as percent survival, as compared to vehicle-treated control, versus log AZD-6244 concentration in nM (where 1 is 10 nM AZD-6244).” for “lines.”

[2] = test system: 63T-Glu573Lys melanoma cells; assay: Growth inhibition by AZD-6244 of mutant GRM3 cells (63T) transduced with empty vector or WT GRM3; settings: 63T cells, 72 hours treatment, CellTiterGlo
Procedure: FIGS. 12A-12C: Expression of WT GRM3 in a mutant GRM3 background desensitizes cells to AZD-6244 inhibition. (FIG. 12A) Cell lysates from 63T cells transduced with empty vector or WT GRM3 were analyzed by western blotting using anti-FLAG-HRP and anti-GAPDH as a loading control. (FIG. 12B) Melanoma cells harboring WT (13T) or mutant GRM3 (63T-Glu573Lys) transduced with empty vector or WT GRM3 were tested for growth inhibition by AZD-6244. Cells were plated and treated with AZD-6244 concentrations ranging from 2 nM to 30 μM for 72 hours prior to analysis using CellTiterGlo and GraphPad Prism5. EC50 dose-response curves were generated from GraphPad using four-parameter nonlinear regression. (FIG. 12C) EC50 values for inhibition of cell growth by 72 h treatment with AZD-6244 of the indicated melanoma cell lines.
To test AZD-6244 inhibition of cells that had been stimulated with DCG-IV to activate MEK1/2, melanoma cells were plated in 96-well plates at 2,000 cells per well in either RPMI-1640/0.5% FBS/2.5 μM DCG-IV or RPMI-1640/10% FBS and incubated for 24 hours prior to addition of inhibitor at concentrations from 2 nM to 30 μM. Once the inhibitor was added, cells were incubated for 72 hours at 37° C. Plates were then analyzed as described above. […]

A375 pooled GRM3 clones = assay: Migration assay (Boyden chamber), A375 pooled GRM3 clones with or without DCG-IV; settings: 2.5 μM DCG-IV, serum-free medium in top chamber
Procedure: (§2) FIGS. 3A-3C: GRM3 mutations increase cell migration in vitro and in vivo. (FIG. 3A) A375 pooled GRM3 clones in the absence of stimulus (i) migrate as well as those stimulated with the group II metabotropic agonist DCG-IV (ii). A375 clones were seeded in Boyden chambers in either the absence of stimulus (i) or in the presence of 2.5 μM DCG-IV (ii) and assessed for their ability to migrate 16 hours later. (FIG. 3B) Mel-STR pooled GRM3 clones were analyzed for migration as described in (FIG. 3A). Stained wells were analyzed using a Zeiss microscope 10× lens and counted with NIH ImageJ software. (FIG. 3C) non-obese diabetic (NOD)/severe combined immunodeficiency (SCID) mice were intravenously injected with A375 pooled GRM3 clones expressing WT, G561E, S610L, E767K, or E870K GRM3, or vector alone, and examined after nine weeks. (i) Graph indicates the number of mice that had lung macrometastases. (ii) Representative images of lungs from mice injected with vector, WT or mutant expressing A375 clones.
(§3) Mel-STR pooled clones were seeded into pre-conditioned migration wells (8.0 μm—BD Biocoat, BD Biosciences) at 30,000 cells per well in serum-free medium or serum-free medium plus 2.5 μM DCG-IV in the top chamber. […] Inserts were analyzed and the number of cells migrated per field view was quantitated using ImageJ (NIH software). […]

[3] = test system: Mel-STR pooled GRM3 clones; assay: Migration assay (Boyden chamber), Mel-STR pooled GRM3 clones with or without DCG-IV; settings: 2.5 μM DCG-IV, serum-free medium in top chamber
Procedure: as §2, §3

For `Cn1cnc2c(F)c(Nc3ccc(Br)cc3Cl)c(C(=O)NOCCO)cc21` [AZD-6244], the “subG1 population (apoptotic cells) in mutant GRM3 cells compared to WT cells” value [1] was “significant increase”, the “cleaved PARP in mutant GRM3 lines compared to WT cells” value (PARP cleavage) was “increased levels of cleaved PARP” and the “relative degree of MEK inhibition, mutant versus WT GRM3 cells” value (MEK) was “greater for the mutant cells than for the WT cells”. The “inhibition of MEK as measured by phosphorylated ERK (p-ERK) levels” value (MEK; mutant as well as WT GRM3 melanoma cells) was “inhibited MEK” and the “resistance of cells overexpressing WT GRM3 in a mutant GRM3 background compared to control infected cells (cell proliferation)” value [2] was “four-fold increased resistance”.
In the case of `N[C@H](C(=O)O)C1[C@@H](C(=O)O)[C@@H]1C(=O)O` (stereo partly shown) [DCG-IV], the “migration of vector and WT GRM3 expressing cells upon stimulation” value (A375 pooled GRM3 clones) is reported as “migrated to a similar extent as mutant GRM3 expressing cells in the absence of stimuli” and the “migration of vector and WT GRM3 expressing cells upon stimulation” value [3] is reported as “migrated to a similar extent as mutant GRM3 expressing cells in the absence of stimuli”.
